Data on 24 compounds can be found in patent US12275707B2, “Modulators of mas-related g-protein receptor X2 and related products and methods” (Escient Pharmaceuticals, Inc., priority 2020, dated 2025).

As usually defined, the Cmax is the peak of the concentration-time curve. Usually Tmax stands for the time from dosing to the highest level.

The target of one series is T1, human MRGPR X2 (Homo sapiens, UniProt Q96LB1).
T1 construct: expressed in transfected cells
T1 sequence (Q96LB1 1-330): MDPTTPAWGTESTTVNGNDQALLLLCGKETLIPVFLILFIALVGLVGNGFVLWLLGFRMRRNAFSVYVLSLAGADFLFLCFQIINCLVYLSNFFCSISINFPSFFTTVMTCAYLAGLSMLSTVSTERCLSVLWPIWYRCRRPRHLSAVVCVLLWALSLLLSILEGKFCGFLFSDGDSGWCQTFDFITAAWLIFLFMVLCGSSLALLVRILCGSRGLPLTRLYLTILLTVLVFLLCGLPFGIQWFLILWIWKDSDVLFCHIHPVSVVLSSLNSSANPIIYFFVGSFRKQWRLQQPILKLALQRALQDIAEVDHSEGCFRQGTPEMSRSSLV
Nature of the series: MRGPR X2 activity, IP-One Gq HTRF antagonist assay versus 0.3 μM Cortistatin-14. It is filed as cell-based. As to conditions: CHO cells expressing human MRGPR X2; versus 0.3 μM Cortistatin-14 agonist; IP-1 HTRF; read-out: MRGPRX2 Antagonist Activity. On the procedure:
CHO cells stably transfected to express human MRGPR X2 were maintained in an incubator at 37° C. with 5% CO2 and grown in F12 (HAM) media with 10% fetal bovine serum (FBS), 1% Glutamax, 1% penicillin/streptomycin, 800 μg/mL Geneticin (G418), and 300 μg/mL Hygromycin B.
Cells were plated in a 384-well assay plate at 20,000 cells per well in 12 μL of Opti-MEM and kept in an incubator overnight. On the day of the assay, compounds solubilized at 10 mM in DMSO were added as a 10-point curve (30 μM final top concentration with 1:3 serial dilutions) using a Tecan D300E digital dispenser. Agonists were diluted in assay buffer (final concentrations of 5.7 mM Tris-HCl, 43 mM NaCl, 50 mM LiCl, pH=8) and 2 μL of the agonist Cortistatin-14 (CPC Scientific, catalog CORT-002) are added to each well. Final concentrations of agonists were 0.3 μM Cortistatin. Final concentrations of DMSO were kept consistent across the plate. Plates were incubated in the dark for 1 h at 37° C. and then for 1 h at room temperature. IP-1 standards and HTRF detection reagents were added according to the IP-One—Gq Kit purchased from Cisbio (part number 62IPAPEJ) and incubated in the dark for 1 h at room temperature. The plate was read on a Molecular Devices SpectraMax iD5 plate reader. The HTRF ratio was calculated from the raw data and graphed using GraphPad Prism to calculate an IC50 value for each compound.
The activity ranges are denoted as follows: “+++++” denotes antagonist activity<100 nM; “++++” denotes antagonist activity between 100 and 500 nM; “+++” denotes activity between 501 and 1000 nM; “++” denotes activity between 1001 and 2500 nM; and “+” denotes activity>2500 nM
Turning to `O=C(N[C@@H]1CCC[C@H](Nc2cc(C(F)(F)F)nc3ccccc23)C1)C1(c2cnccn2)CC1` (racemic) [Example 4-29], the IC50 was 1000 to 2500 nM.
In the case of `COc1ccc(COc2cc(C(=O)N[C@@H]3CCC[C@H](Nc4cc(C(F)(F)F)nc5ccccc45)C3)on2)cc1` (racemic) [Example 4-35], the IC50 is 1000 to 2500 nM.
Consider `CCCc1nnsc1C(=O)N[C@@H]1CCC[C@H](Nc2cc(C(F)(F)F)nc3ccccc23)C1` (racemic) [Example 4-40], for which the IC50 was 1000 to 2500 nM.
As to `CC(C)Cc1cc(C(=O)N[C@@H]2CCC[C@H](Nc3cc(C(F)(F)F)nc4ccccc34)C2)n(C)n1` (racemic) [Example 4-90], the IC50 lay within 1000 to 2500 nM.
On to `O=C(CN1C(=O)COc2ccccc21)N[C@@H]1CCC[C@H](Nc2cc(C(F)(F)F)nc3ccccc23)C1` (racemic) [Example 4-100], for which the IC50 was 1000 to 2500 nM.
Still for that read-out and setting: under `COc1ccc(C(=O)N[C@@H]2CCC[C@H](Nc3cc(C(F)(F)F)nc4ccc(Cl)cc34)C2)cc1` [Example 1, N-((1R,3S)-3-((6-chloro-2-(trifluoromethyl)quinolin-4-yl)amino)cyclohexyl)-4-methoxybenzamide] stands under 100 nM; under `O=C(N[C@@H]1CCC[C@H](Nc2cc(C(F)(F)F)nc3ccccc23)C1)c1ccc(F)cc1` [Example 1-8], 100 to 500 nM; under `O=C(N[C@@H]1CCC[C@H](Nc2nc(C(F)(F)F)nc3ccccc23)C1)c1ccc(F)cc1` [Example 3, 4-fluoro-N-[(1R,3S)-3-[[2-(trifluoromethyl)quinazolin-4-yl]amino]cyclohexyl]benzamide], 501 to 1000 nM.
Still for that read-out and setting: under `N#Cc1ccccc1C(=O)N[C@@H]1CCC[C@H](Nc2cc(C(F)(F)F)nc3ccccc23)C1` [Example 3-6] stands 100 to 500 nM; under `Cc1nc(N(C)C)ccc1C(=O)N[C@@H]1CCC[C@H](Nc2cc(C(F)(F)F)nc3ccccc23)C1` [Example 4-22], 1000 to 2500 nM.
On to `O=C(N[C@@H]1CCC[C@H](Nc2cc(C(F)(F)F)nc3ccccc23)C1)c1cccc(N2CCCC2=O)c1` [Example 4-172], for which the IC50 was 1000 to 2500 nM.
Same read-out and setting: the result for `N#CC1(C(=O)N[C@@H]2CCC[C@H](Nc3cc(C(F)(F)F)nc4ccccc34)C2)CC1` [Example 4-183] reads 1000 to 2500 nM; that for `O=C(N[C@@H]1CCC[C@H](Nc2cc(C(F)(F)F)nc3ccc(Cl)cc23)C1)c1cccc(F)c1` [Example 4-239], 100 to 500 nM; that for `CCS(=O)(=O)Nc1cccc(C(=O)N[C@@H]2CCC[C@H](Nc3cc(C(F)(F)F)nc4ccc(Cl)cc34)C2)c1` [Example 4-241], under 100 nM.
For `O=C(N[C@@H]1CCC[C@H](Nc2cc(C(F)(F)F)nc3ccc(Cl)cc23)C1)c1cnn(C(F)F)c1` [Example 4-399], the IC50 is under 100 nM.
On to `O=C(N[C@@H]1CCC[C@H](Nc2cc(C(F)(F)F)nc3ccc(Cl)cc23)C1)c1ccc(F)nc1` [Example 4-411], for which the IC50 was under 100 nM.
Take `N#CCCn1ncc(C(=O)N[C@@H]2CCC[C@H](Nc3cc(C(F)(F)F)nc4ccc(Cl)cc34)C2)c1Cl` [Example 4-420]: the IC50 was under 100 nM.
Still for that read-out and setting: the result for `CN(C)c1ccc(C(=O)N[C@@H]2CCC[C@H](Nc3cc(C(F)(F)F)nc4ccc(F)cc34)C2)cc1` [Example 4-421] reads under 100 nM; that for `CN(C)c1ncc(C(=O)N[C@@H]2CCC[C@H](Nc3cc(C(F)(F)F)nc4ccc(Cl)cc34)C2)s1` [Example 4-422], under 100 nM.
Consider `O=C(N[C@@H]1CCC[C@H](Nc2cc(C(F)(F)F)nc3ccc(Cl)cc23)C1)c1cnc(NCCF)nc1` [Example 4-423], for which the IC50 is under 100 nM.
On the same count and under the same terms, the result for `O=C(N[C@@H]1CCC[C@H](Nc2cc(C(F)(F)F)nc3ccc(Cl)cc23)C1)c1ccsn1` [Example 4-425] reads under 100 nM; that for `Nc1ncc(C(=O)N[C@@H]2CCC[C@H](Nc3cc(C(F)(F)F)nc4ccc(Cl)cc34)C2)cn1` [Example 15, 2-amino-N-[(1R,3S)-3-{[6-chloro-2-(trifluoromethyl)quinolin-4-yl]amino}cyclohexyl]pyrimidine-5-carboxamide], under 100 nM.
For the compound `O=C(N[C@@H]1CCC[C@H](Nc2cc(C(F)(F)F)nc3ccc(Cl)cc23)C1)c1ccn(CCF)c1` [Example 19, N-((1R,3S)-3-((6-chloro-2-(trifluoromethyl)quinolin-4-yl)amino)cyclohexyl)-1-(2-fluoroethyl)-1H-pyrrole-3-carboxamide], the IC50 was under 100 nM.

Tested on in the next series: not listed separately
Nature of the series: Mouse Pharmacokinetics Studies. It is filed as in vivo. As to conditions: male, C57BL/6, mouse, plasma, po, 50 mg/kg, male C57BL/6 mice, 50 mg/kg oral gavage, non-fasted, read-out: AUC 0-24. How it is done: Compounds were formulated in 5% DMSO, 5% Solutol, and 90% PBS without Ca and Mg (pH 7.4) at a concentration of 5 mg/mL. Male C57BL/6 mice (n=3/compound) were administered a 50 mg/kg dose of each compound by oral gavage under a non-fasted condition. Blood samples were collected via the saphenous vein onto K2-EDTA at 0.25, 0.5, 1, 2, 4, 8 and 24 hours after dosing, and plasma was prepared and stored at −80° C. until analysis. Plasma sample preparation for analysis was done by protein precipitation using acetonitrile (including Verapamil as an internal standard) followed by centrifugation. Compound concentrations were determined in extracted plasma using LC-MS/MS relative to a 12 point standard curve covering the 1 to 4000 nM range. Non-compartmental analysis using Phoenix WinNonlin was used to estimate pharmacokinetic parameters including area under the curve, clearance, and half-life. The administered dose was confirmed by analysis of residual dosing material by UPLC-UV relative to a single point calibration sample.
With `O=C(N[C@@H]1CCC[C@H](Nc2cc(C(F)(F)F)nc3ccc(Cl)cc23)C1)N1CC2(CC2)C1` [Example 6-9], the AUC(0-t) stood at 43 µM·h.

Still in this series, the particulars now being: male, C57BL/6, mouse, plasma, po, 50 mg/kg, male C57BL/6 mice, 50 mg/kg oral gavage, non-fasted, read-out: AUC 0-last.
As for `O=C(N[C@@H]1CCC[C@H](Nc2cc(C(F)(F)F)nc3ccc(Cl)cc23)C1)N1CC2(CC2)C1` [Example 6-9], the AUC(0-t) stood at 42 µM·h.

Still in this series, the particulars now being: mouse; male C57BL/6 mice, 50 mg/kg oral gavage, non-fasted, plasma.
The compound `O=C(N[C@@H]1CCC[C@H](Nc2cc(C(F)(F)F)nc3ccc(Cl)cc23)C1)N1CC2(CC2)C1` [Example 6-9] returned a Cmax of 5.1 µM.

Still in this series, the particulars now being: mouse; male C57BL/6 mice, 50 mg/kg oral gavage, non-fasted, plasma; read-out: PK: Tmax.
For the compound `O=C(N[C@@H]1CCC[C@H](Nc2cc(C(F)(F)F)nc3ccc(Cl)cc23)C1)N1CC2(CC2)C1` [Example 6-9], the Tmax came to 3.3 h.

A further series deals with Human LAD2 cells. In words: Mast Cell Beta-Hexosaminidase Release Assay (500 nM Cortistatin-14). It is filed as cell-based. Particulars: read-out: MRGPRX2 Antagonist Activity. On the procedure:
Human LAD2 cells (NIH) were maintained in an incubator at 37° C. with 5% CO2 and cultured in StemPro-34 serum-free media (Gibco 10639011) supplemented with 2 mM L-glutamine, 100 U/ml penicillin, […] streptomycin and 100 ng/ml SCF (Invitrogen PEP0860), at a concentration of 2-5×10^5 cells/mL, with hemidepletion every 1-2 weeks.
Cells were transferred to SCF-Free medium at 2.5×10^5 cells/mL and kept in an incubator overnight. On the day of the assay, cells were washed twice in Assay Buffer (final concentrations 10 mM HEPES, 137 mM NaCl, 5.6 mM D-glucose, 2.7 mM KCl, 1 mM MgCl, 1.8 mM CalCl2, 0.4 mM Na2HPO4·7H2O, 0.04% BSA, pH=7.4) and plated in a 96-well v-bottom plate at 20,000 cells per well in 80 μL Assay Buffer. […] After incubation, 50 μL of 400 mM Glycine buffer (pH 10.7) was added into each well and the plate was read on a Molecular Devices SpectraMax iD5 plate reader (absorbance at 405 nm with reference filter at 620 nm). After background subtraction, the percentage degranulation (percent beta-hexosaminidase release) was calculated as 100×(supernatant values)/(supernatant+lysate values), followed by analysis using GraphPad Prism software to calculate an IC50 value for each compound. […]
As to `N#CCCn1ncc(C(=O)N[C@@H]2CCC[C@H](Nc3cc(C(F)(F)F)nc4ccc(Cl)cc34)C2)c1Cl` [Example 4-420], the IC50 was under 100 nM.
